≈ marks a conversion by molar mass, not a printed value. Where two headings read alike, the source gives them in different places.
Key:
in vivo = assay: in vivo; design: species or system rats; conditions: rat
Experimental: (§1) In chronic studies with dogs and rats, the no-observed-adverse-effect-level was 1000 mg/kg. […] Significant partitioning of drug-related radioactivity to the formed elements of the blood was observed. […] The urine contained a small amount (5.5%) of radioactivity.
Pharmacokinetic parameters were determined following single and multiple doses in rats and dogs. The doses in rats and dogs were based upon those utilized in the single and multiple-dose toxicology studies. In addition, the absorption, distribution, metabolism, and elimination of rifalazil was studied in rats and dogs. These studies confirmed prior findings that there are species differences vis-a-vis sensitivity to and response to treatment with rifalazil.

M. intracellulare = conditions: 31 strains, agar dilution; cited from earlier work
clinical [1] = conditions: human, in vivo
Excerpt: Attempts were made to analyze the multiple-dose pharmacokinetics using a linear 3-compartment model, and a 3-compartment model incorporating enzyme induction. However, neither multi-compartmental model accurately characterized the pharmacokinetic parameters in all subjects. Daily dosing and related early terminations due to adverse reactions, differences in bioavailability from a food effect, and nonconnective dose administration further complicated these analyses. Therefore, only noncompartmental pharmacokinetic parameters were derived for clinical trials 003 and 004. For the 004 clinical trial, the pharmacokinetic analysis of this multiple-dose study was limited to a comparison of the noncompartmental parameters obtained from the first dose (Day 1) data versus the fourth (last) dose (Day 22). Because of extensive sampling after the fourth dose, this study yielded the most complete data about terminal elimination of rifalazil given in a multiple-dose regimen.

[2] = Multiple-dose oral toxicology studies in dogs; assay type: in vivo
Experimental: as §1
Single-dose and multiple-dose oral toxicology studies were conducted in mice, rats, and dogs. In addition, to maximize systemic exposure, single-dose intravenous (IV) and intraperitoneal (IP) studies were conducted in rats and mice. Four-week and 13-week oral studies in dogs and rats and 26-week oral studies in rats included standard clinical measurements and physical and pathological evaluations.

M. tuberculosis [3] = conditions: cited from earlier work
Helicobacter pylori = system: Helicobacter pylori; design: unit of the concentration uncertain; conditions: time-kill, broth medium, 0.04 (unit uncertain); cited from earlier work
[4] = system: M. tuberculosis strain Erdman; conditions: cited from earlier work
clinical [5] = conditions: human, in vivo; remark: listed apart in the source
Experimental: A total of four clinical trials have been conducted to study the effects of rifalazil in humans. Two single-dose Phase 1 clinical trials (001) and (002) assessed the safety and pharmacokinetics of rifalazil in normal, healthy, fasted subjects. In the 001 trial, a single 300 mg dose of rifalazil was administered to six subjects. In the 002 trial, single doses of 30 mg or 100 mg were administered to eight subjects each. The results of these studies indicated a substantially higher incidence of adverse reactions at the 300 mg dose compared to the 30 mg or 100 mg dose.
The pharmacokinetics of rifalazil in whole blood in these two clinical trials was similar to that of rifalazil pharmacokinetics in plasma. […] Therefore, future pharmacokinetic analyses focused on rifalazil concentrations in plasma. Table 7 summarizes noncompartmental parameters derived from plasma concentrations in fasted subjects following administration of single doses of 30 mg, 100 mg, or 300 mg of rifalazil in these studies.
Pharmacokinetic analyses associated with clinical trials involved measurement of concentrations of rifalazil in plasma and/or whole blood of subjects participating in the four Phase 1 studies using high performance liquid chromatography.

M. tuberculosis [6] = conditions: cited from earlier work; remark: listed apart in the source
[7] = Clinical signs, general behavior and spontaneous locomotor activity of mice; assay type: in vivo
Experimental: Pharmacological studies were undertaken in mice, rats, and dogs, and in isolated guinea pig ileum.
Rifalazil had little effect on the clinical signs or general behavior of mice following oral administration of 100, 300, or 1,000 mg/kg. Rifalazil had no effect on the spontaneous locomotor activity of mice at 100 and 300 mg/kg.

[8] = system: M. tuberculosis in human macrophages; assay: MIC and MBC against intracellular bacteria in human macrophages; assay type: cell-based, Mycobacterium tuberculosis
[9] = system: M. tuberculosis in human macrophages; conditions: intracellular, cited from earlier work
[10] = Ref. 1, BACTEC, 30 strains (rif^r and rif^s)
[11] = Ref. 2, BACTEC, 24 strains (rif^r and rif^s)
[12] = Ref. 3, BACTEC, 13 strains (rif^s)
[13] = Ref. 4, BACTEC, 11 strains (rif^r)
[14] = Ref. 5, BACTEC, 20 strains (rif^s)
[15] = thirty clinical isolates, BACTEC

CO[C@H]1/C=C/O[C@@]2(C)Oc3c(C)c(O)c4c(=O)c(c5oc6cc(N7CCN(CC(C)C)CC7)cc(O)c6nc-5c4c3C2=O)NC(=O)/C(C)=C\C=C\[C@H](C)[C@H](O)[C@@H](C)[C@@H](O)[C@@H](C)[C@H](OC(C)=O)[C@@H]1C [Rifalazil, 3′-hydroxy-5′-(4-isobutyl-1-piperazinyl)benzoxasinorifamycin]
CL/F (in vivo; female): 3.62 mL/min/kg | CL/F (in vivo; male): 3.07 mL/min/kg | half-life (in vivo): 12.5 h | radioactivity in the urine (in vivo): 5.5% | radioactivity recovered in the feces (in vivo): 84% | bioavailability (in vivo; 3 mg/kg): 30 to 40% | MIC90 (M. intracellulare): 0.1 µg/mL (≈ 0.106 µM) | increase of AUC(0-24) on Day 22 relative to Day 1 (clinical [1]; 25 mg): approximately 17% | half-life (clinical [1]; 25 mg, apparent terminal half-life, range): 29.5 to 107 h | increase of AUC(0-24) on Day 22 relative to Day 1 (clinical [1]; 50 mg): ~27% | half-life (clinical [1]; 50 mg, apparent terminal half-life, range): 65.9 to 148 h | half-life (clinical [1]; Half-life distribution t½ (mean)): 10.5 h | half-life (clinical [1]; Half-life elimination t½ (mean)): ~61 h | Tmax (clinical [1]; Tmax (mean)): 5.7 h | liver weight ([2]; 1,000 mg/kg, four weeks daily dosing): slight increase in liver weight | no observable adverse effect level ([2]; 13-week study, daily oral): 300 mg/kg | no-observed-adverse-effect-level ([2]; chronic studies, dogs): 1000 mg/kg | doses at which hematological changes were noted ([2]; multiple-dose oral, dogs): > 30 mg/kg | lesions in the lung (M. tuberculosis [3]; 10 mg/kg six times a week): no lesions observed in the lung | reduction of log CFU in lungs (M. tuberculosis [3]; 10 mg/kg six times a week): about 80% | reduction of the bacteria (M. tuberculosis [3]; Twice-a-week or once-a-week administration): about 35% | reduction in CFU (M. tuberculosis [3]; once-a-week administration of these very high dosages): about 42% | CFUs at 24 hours lower than the control at zero hours (Helicobacter pylori): more than 4.5 log | reduction of bacterial load in lungs and spleens, comparison of drugs ([4]; 20 mg/kg, five times per week for four weeks): reduced bacterial loads to a significantly greater extent than the other two drugs | activity against organisms in lungs, comparison of treatments ([4]; four weeks treatment): most active single-agent | cell counts in lungs compared to early controls ([4]; four weeks treatment): significantly reduced cell counts in lungs | cell counts in lungs compared to late controls ([4]; four weeks treatment): reduced cell counts in lungs | CFUs in the spleen ([4]; rifalazil 20 mg/kg, PZA 150 mg/kg, four weeks): most active single-agent | plasma to blood ratio (clinical [5]): 1.6:1 | AUC(0-inf) (clinical [5]; 30 mg): 505 ng·h/mL | AUC(0-t) (clinical [5]; 30 mg): 197 ng·h/mL | Cmax (clinical [5]; 30 mg): 17.8 ng/mL | Tmax (clinical [5]; 30 mg): 3.1 h | half-life (clinical [5]; 30 mg): 48.7 h | AUC(0-inf) (clinical [5]; 100 mg): 1540 ng·h/mL | AUC(0-t) (clinical [5]; 100 mg): 800 ng·h/mL | Cmax (clinical [5]; 100 mg): 53.6 ng/mL | Tmax (clinical [5]; 100 mg): 4 h | half-life (clinical [5]; 100 mg): 43.1 h | AUC(0-inf) (clinical [5]; 300 mg): 4330 ng·h/mL | AUC(0-t) (clinical [5]; 300 mg): 1450 ng·h/mL | Cmax (clinical [5]; 300 mg): 116 ng/mL | Tmax (clinical [5]; 300 mg): 3 h | half-life (clinical [5]; 300 mg): 206 h | MIC90 (M. tuberculosis [6]; [10]): 2.0 µg/mL (≈ 2.13 µM) | MIC Range (M. tuberculosis [6]; [10]): ≦0.002 to 4.0^ μg/mL | MIC90 (M. tuberculosis [6]; [11]): 4.0 µg/mL (≈ 4.25 µM) | MIC Range (M. tuberculosis [6]; [11]): 0.0009 to 4.0 µg/mL | MIC90 (M. tuberculosis [6]; [12]): 0.0156 µg/mL (≈ 0.0166 µM) | MIC Range (M. tuberculosis [6]; [12]): 0.0009 to 0.125 µg/mL | MIC90 (M. tuberculosis [6]; [13]): 4.0 µg/mL (≈ 4.25 µM) | MIC Range (M. tuberculosis [6]; [13]): 0.062 to 4.0 µg/mL | MIC90 (M. tuberculosis [6]; [14]): <0.125 µg/mL | MIC Range (M. tuberculosis [6]; [14]): <0.125 µg/mL | MIC90 (M. tuberculosis [6]; Ref. 6, BACTEC, 20 strains (rif^r)): >2.0 µg/mL | MIC (M. tuberculosis [6]; reference strain H37Rv, BACTEC): 0.004 µg/mL (≈ 0.00425 µM) | MIC (M. tuberculosis [6]; reference strain Kurono, BACTEC): 0.002 µg/mL (≈ 0.00213 µM) | MIC90 (M. tuberculosis [6]; rifampin-sensitive Mycobacterium tuberculosis): 0.0156 µg/mL (≈ 0.0166 µM) | MIC50 50% inhibition (M. tuberculosis [6]; [15]): 0.016 µg/mL (≈ 0.017 µM) | MIC90 90% inhibition (M. tuberculosis [6]; [15]): 2.0 µg/mL (≈ 2.13 µM) | spontaneous locomotor activity ([7]; 1000 mg/kg): increase in spontaneous locomotor activity for one hour | spontaneous locomotor activity ([7]; 100 and 300 mg/kg): no effect | clinical signs or general behavior ([7]; oral 100, 300, or 1,000 mg/kg): little effect | MIC and MBC fold lower than rifampin [8]: at least 10 fold | MBC ([9]; strain Atencio): 0.008 µg/mL (≈ 0.0085 µM) | MIC ([9]; strain Atencio): 0.004 µg/mL (≈ 0.00425 µM) | MBC ([9]; strain Erdman): 0.008 µg/mL (≈ 0.0085 µM) | MIC ([9]; strain Erdman): 0.008 µg/mL (≈ 0.0085 µM) | MBC ([9]; strain H37Rv): 0.016 µg/mL (≈ 0.017 µM) | MIC ([9]; strain H37Rv): 0.004 µg/mL (≈ 0.00425 µM)

— US7772228B2, “Method for treatment of bacterial infections with once or twice-weekly administered rifalazil” (priority 1998, dated 2010)
